This note sets out measurements from ChEMBL document CHEMBL1149991, “Benzofuran based angiotensin II antagonists related to GR117289: enhancement of potency in vitro and oral activity” (Bioorg Med Chem Lett, 1993).

Some results are limits rather than exact numbers.

This assay addresses T1, Type-1 angiotensin II receptor (Oryctolagus cuniculus) (UniProt P34976).
T1 sequence (whole entry): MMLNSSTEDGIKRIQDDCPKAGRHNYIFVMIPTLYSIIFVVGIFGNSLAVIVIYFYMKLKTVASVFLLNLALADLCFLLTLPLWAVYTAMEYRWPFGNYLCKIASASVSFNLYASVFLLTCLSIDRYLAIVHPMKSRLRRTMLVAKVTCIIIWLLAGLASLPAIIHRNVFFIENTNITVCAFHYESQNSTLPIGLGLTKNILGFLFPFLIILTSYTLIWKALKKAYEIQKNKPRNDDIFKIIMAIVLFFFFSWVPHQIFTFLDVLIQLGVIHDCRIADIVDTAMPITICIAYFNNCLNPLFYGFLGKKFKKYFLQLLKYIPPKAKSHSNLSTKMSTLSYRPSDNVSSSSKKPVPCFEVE
The assay can be described thus: In vitro for its antagonistic activity against angiotensin II type 1 receptor in Rabbit Aorta. In kind it is functional, tissue-based.
For `CCCCc1nc(Cl)c(CC(=O)O)n1Cc1ccc2oc(-c3ccccc3-c3nn[nH]n3)c(Br)c2c1`, the pKB worked out at 9.8. For the compound `CCCCc1nc(Cl)c(C(=O)O)n1Cc1ccc2oc(-c3ccccc3-c3nn[nH]n3)c(C(C)(C)C)c2c1`, the negative logarithm of the KB (pKB) was 8.3.

`CCCCc1nc(Cl)c(C(=O)O)n1Cc1ccc2oc(-c3ccccc3-c3nn[nH]n3)c(Cl)c2c1` gave a negative-log KB (pKB) of 10.5. Regarding `CCCCc1nc(Cl)c(C(=O)O)n1Cc1ccc2oc(-c3ccccc3C(N)=O)c(Br)c2c1`, the negative-log KB (pKB) came to 7.2. As to `CCCCc1nc(Cl)c(C(=O)N(C)C)n1Cc1ccc2oc(-c3ccccc3-c3nn[nH]n3)c(Br)c2c1`, the pKB came to 8.8.

Regarding `CCCCc1nc(Cl)c(C(=O)NC)n1Cc1ccc2oc(-c3ccccc3-c3nn[nH]n3)c(Br)c2c1`, the negative logarithm of the KB (pKB) is 9.2. The compound `CCCCc1nc(Cl)c(CNC(N)=O)n1Cc1ccc2oc(-c3ccccc3-c3nn[nH]n3)c(Br)c2c1` gave a pKB of 8.8. `CCCCc1nc(Cl)c(C(=O)O)n1Cc1ccc2oc(-c3ccccc3-c3nnnn3C)c(Br)c2c1` gave a pKB of 7.3. Turning to `CCCCc1nc(Cl)c(C(=O)O)n1Cc1ccc2oc(-c3ccccc3-c3nn[nH]n3)c(OC)c2c1`, the negative-log KB (pKB) is 9.6. As to `CCCCc1nc(Cl)c(C(N)=O)n1Cc1ccc2oc(-c3ccccc3-c3nn[nH]n3)c(Br)c2c1`, the pKB came to 9.

`CCCCc1nc(Cl)c(C(=O)OCC)n1Cc1ccc2oc(-c3ccccc3-c3nn[nH]n3)c(Br)c2c1`: the pKB came to 8.3.

Regarding `CCCCc1nc(Cl)c(C(=O)O)n1Cc1ccc2oc(-c3ccccc3NS(=O)(=O)C(F)(F)F)c(Br)c2c1`, the pKB was 7.8. As for `CCCCc1nc(Cl)c(C(=O)O)n1Cc1ccc2oc(-c3ccccc3C(=O)OCC)c(Br)c2c1`, the pKB came to 7.8. Turning to `CCCCc1nc(Cl)c(C(=O)O)n1Cc1ccc2oc(-c3ccccc3C#N)c(Br)c2c1`, the pKB was < 6. `CCCCc1nc(Cl)c(C(=O)O)n1Cc1ccc2oc(-c3ccccc3C(=O)Nc3nn[nH]n3)c(Br)c2c1` had a negative-log KB (pKB) of 8.8. The same measure for `CCCCc1nc(Cl)c(C(=O)O)n1Cc1ccc2oc(-c3ccccc3-c3nnn(C)n3)c(Br)c2c1`: 6.4; for `CCCCc1nc(Cl)c(C(=O)O)n1Cc1ccc2oc(-c3ccccc3-c3nn[nH]n3)c(C(F)(F)F)c2c1`: 10.
